# According to US10471025B2, “Compositions for use in treating parkinson's disease and related disorders” (Technophage, Investigação E Desenvolvimento Em …, priority 2015, dated 2019):
# “Also recorded” adds a separate entry of the source. Structures can show the parent of a compound that is named as a salt. Where two headings read alike, the source gives them in different places.
# Key:
# [1] = IV, rats; cited from earlier work
# [2] = system: mouse; settings: cited from earlier work
# [3] = system: 6-OHDA treated zebrafish larvae; assay: Rescue of Tyrosine hydroxylase (TH)-positive dopaminergic neurons in 6-OHDA zebrafish larvae; format: in vivo
# Protocol: The 7 candidates also were tested in terms of rescue of dopaminergic neurons positive for Tyrosine hydroxylase (Th) in the substancia nigra pars compacta of the test animals. […] Results were normalized for healthy control values (healthy control=100% of neurons). As a control, zebrafish were treated with only the vehicle, ascorbic acid. ‘6-OHDA_ represents results in zebrafish receiving no treatment.
# FIGS. 6E-6G show representative Z-projections of confocal stacks of whole-mount anti-TH immunohistochemistry in 6 days post-fertilization (dpf) of zebrafish larvae (age of the fish) control (FIG. 6E), 6-OHDA (FIG. 6F), and tapentadol treated-larvae (FIG. 6G).
# [4] = system: healthy wild type mice; assay: Toxicity assay, open field test in healthy wild type mice (Example 6); format: in vivo, mouse; settings: 1 h after i.p.; tapentadol C1 8.3 mg/kg in combination with L-Dopa 18 mg/kg
# From the text: Necropsy was done after cervical dislocation. […] Saline was given to the control group.
# [5] = cited from earlier work; for Bioavailability: 86 mg
# [6] = system: 6-OHDA mouse model; assay: Abnormal involuntary movements (AIMs), 6-OHDA mice, ON/OFF L-Dopa study (Example 7)
# Protocol: The unilateral striatal 6-OHDA mice model was used in this study. Specifically, 12 week old CD-1 male mice received an injection of 6-OHDA neurotoxin at the following coordinates: AP +0.9 mm, ML +2.0 mm, DV −3.2 mm, as in the Example outlined above. Animals were injected with 10 ? g of 6-OHDA or ascorbic acid (vehicle control) to induce the disease. Disease was induced for 7 days and treatment then was initiated at this time point.
# The following parameters were evaluated: hyperkinetic and/or dystonic movements of the contralateral forelimb on the sagittal or frontal plane (forelimb involuntary movements; FIG. 29A), twisted posture of the neck and upper body towards the side contralateral to the lesion (upper body involuntary movements; FIG. 29B), twitching of orofacial muscles, empty jaw movements and contralateral tongue protrusion (orofacial involuntary movements; FIG. 29C), circular locomotion with contralateral side bias (circular involuntary movements; FIG. 29D), total involuntary movements (FIG. 29E), and total involuntary movement along the different timepoints (FIG. 29F). […] Total abnormal involuntary movements (FIGS. […]) were the sum of all 4 different involuntary movements evaluated.
# The same parameters were analyzed as for 20 days post injection (dpi).
# [7] = system: cytochrome P450 (CY P) isoenzymes; settings: cited from earlier work
# [8] = after a high-fat, high-calorie breakfast
structure (smiles),measurement,setting,value
"CC[C@@H](c1cccc(O)c1)[C@@H](C)CN(C)C [tapentadol, tapentadol hydrochloride]",Dose with suspected proconvulsion effect,[1],6 mg/kg
same,LD50,"[2]; intravenous administration, mice",47 mg/kg
same,LD50,"[2]; oral administration, mouse",300 mg/kg
same,LD50,"[2]; oral, mice",300 to 350 mg/kg
same,Neurorescue,"[3]; TH+ neurons at optimal dose, p",Confirmed p < 0.055
same,Neuroprotective effect / recovery of TH+ neurons,"[3]; at the optimal concentration of each molecule, hydrochloride",confirmed; also recorded: recovery was observed
same,"Open field behavior (velocity, distance, time resting/moving)",[4],slightly different behavior in three out of the four parameters analyzed
same,Conjugated form among related compounds excreted in the urine,[5]; 100 mg radiolabelled oral dose,69%
same,Drug recovered in 5 days,[5]; 100 mg radiolabelled oral dose,99.9%
same,Excreted via urine,[5]; 100 mg radiolabelled oral dose,99%
same,"Exposure to the conjugates, of the total",[5]; 100 mg radiolabelled oral dose,approximately 64%
same,Other forms of metabolites among related compounds excreted in the urine,[5]; 100 mg radiolabelled oral dose,27%
same,Parent drug among related compounds excreted in the urine,[5]; 100 mg radiolabelled oral dose,3%
same,Total dose excreted within 24 hours,[5]; 100 mg radiolabelled oral dose,95%
same,Total drug excreted in the feces,[5]; 100 mg radiolabelled oral dose,Approximately 1%
same,Cmax,[5]; ER,22.5 ng/mL
same,Cmax,[5]; IR,64.2 ng/mL
same,Tmax,[5]; IR,1.5 h
same,Increase of AUC with food,[5]; [8],25%
same,Increase of Cmax with food,[5]; [8],16%
same,Elimination half-life,[5]; after oral administration,4 h
same,Metabolized to N-desmethyl tapentadol,[5]; by CY P2C9 and CY P2C19,13%
same,Metabolized to hydroxy tapentadol,[5]; by CY P2D6,2%
same,Bioavailability,[5]; extended release (ER),32%
same,Lower mean Cmax in elderly vs young adult subjects,[5]; geriatric patients,16%
same,Parent compound metabolized,[5]; humans,about 97%
same,Bioavailability,[5]; immediate release (IR),32%
same,Drug excreted in urine as unchanged drug,[5]; in vivo,3%
same,Excretion via the kidneys (tapentadol and its metabolites),[5]; in vivo,99%
same,Total clearance,[5]; in vivo,1530 ± 177 mL/min
same,Volume of distribution (Vz),"[5]; intravenous administration, hydrochloride",540 ± 98 L
same,AUC ratio vs normal hepatic function,[5]; mild hepatic impairment (Child-Pugh Score 5 to 6),1.7
same,Cmax ratio vs normal hepatic function,[5]; mild hepatic impairment,1.4
same,t1/2 ratio vs normal hepatic function,[5]; mild hepatic impairment,1.2
same,AUC ratio vs normal hepatic function,[5]; moderate hepatic impairment (Child-Pugh Score 7 to 9),4.2
same,Cmax ratio vs normal hepatic function,[5]; moderate hepatic impairment,2.5
same,t1/2 ratio vs normal hepatic function,[5]; moderate hepatic impairment,1.4
same,Mean accumulation factor,"[5]; multiple (every 6 hour) dose study, 75 to 175 mg tapentadol",1.6
same,Time of maximum serum concentrations after dosing,[5]; oral,around 1.25 hours
same,Mean absolute bioavailability,[5]; single-dose administration (fasting),approximately 32%
same,Dose excreted as O-glucuronide,[5]; urine,55%
same,Dose excreted as sulfate of tapentadol,[5]; urine,15%
same,Induction of abnormal involuntary movements,[6]; L-Dopa treated groups vs tapentadol hydrochloride alone,did not; also recorded: does not induce AIMs
same,Effect on L-Dopa induced AIMs / dyskinesia,"[6]; concomitant administration with L-Dopa, hydrochloride",not reverted; also recorded: did not revert L-Dopa induced AIMs; also recorded: did not increase dyskinesia
same,Induction of CYP isoenzymes,[7],no significant induction
